The supplement of paper PMC10307832

What was measured:
Test in all cases: relative viability (nuclei count vs DMSO), 5 days (fraction); higher = more cells survive
[1] = compound: C1=CC=C(C(=C1)C2=CC=C(C=C2)C3=CSC4=C3C(=C(C(=O)N4)C#N)O)O + COc1cccc2cc(-c3nc([C@H]4CC[C@H](C(=O)O)CC4)n4ncnc(N)c34)[nH]c12 [OSI-027] (partner 0.5 µM)
In short: (§1)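 Lung cancer cell lines, seeded in 1536-well plates, were treated the following day by pin tool with a single drug or with five library-drug doses (not always all listed) in √10 steps on top of a fixed anchor-drug dose. Cells were fixed and nuclei stained in one step after 5 days, and nuclei were counted. Relative viability is the nuclei count for treated wells divided by that for vehicle wells, reported as medians of duplicate plates.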

[2] = compound: C1=CC=C(C(=C1)C2=CC=C(C=C2)C3=CSC4=C3C(=C(C(=O)N4)C#N)O)O + Nc1ncn([C@H]2C[C@H](O)[C@@H](CO)O2)c(=O)n1 [Decitabine] (partner 2 µM)
In short: as §1

[3] = compound: CC1=CN2C(=O)C=C(N=C2C(=C1)C(C)NC3=CC=CC=C3)N4CCOCC4 [TGX 221] + CC1(C)CCC(c2ccc(Cl)cc2)=C(CN2CCN(c3ccc(C(=O)NS(=O)(=O)c4ccc(N[C@H](CCN5CCOCC5)CSc5ccccc5)c(S(=O)(=O)C(F)(F)F)c4)cc3)CC2)C1 [Navitoclax] (partner 0.5 µM)
In short: as §1

[4] = compound: CC1=CN2C(=O)C=C(N=C2C(=C1)C(C)NC3=CC=CC=C3)N4CCOCC4 [TGX 221] + NC(=O)Nc1cc(-c2cccc(F)c2)sc1C(=O)N[C@H]1CCCNC1 [AZD7762] (partner 0.2 µM)
In short: as §1

Row | Cell Line | relative viability ([1]; first compound 0.08 µM) | relative viability ([1]; first compound 0.253 µM) | relative viability ([1]; first compound 0.8 µM) | relative viability ([1]; first compound 2.53 µM) | relative viability ([1]; first compound 8 µM) | relative viability ([2]; first compound 0.08 µM) | relative viability ([2]; first compound 0.253 µM) | relative viability ([2]; first compound 0.8 µM) | relative viability ([2]; first compound 2.53 µM) | relative viability ([2]; first compound 8 µM) | relative viability ([3]; first compound 0.08 µM) | relative viability ([3]; first compound 0.253 µM) | relative viability ([3]; first compound 0.8 µM) | relative viability ([3]; first compound 2.53 µM) | relative viability ([3]; first compound 8 µM) | relative viability ([4]; first compound 0.08 µM) | relative viability ([4]; first compound 0.253 µM) | relative viability ([4]; first compound 0.8 µM) | relative viability ([4]; first compound 2.53 µM) | relative viability ([4]; first compound 8 µM)
1 | A-427 | 0.363 | 0.505 | 0.514 | 0.432 | 0.452 | 0.517 | 0.595 | 0.567 | 0.563 | 0.656 | 1.05 | 0.976 | 0.949 | 0.935 | 0.803 | 0.728 | 0.712 | 0.8 | 0.762 | 0.698
2 | NCI-H1975 | 0.535 | 0.823 | 0.689 | 0.709 | 0.676 | 0.384 | 0.4 | 0.41 | 0.403 | 0.426 | 1.03 | 1.13 | 0.989 | 0.903 | 0.805 | 0.688 | 0.694 | 0.668 | 0.662 | 0.557
3 | HCC-827 | 0.691 | 0.862 | 0.699 | 0.881 | 0.739 | 0.318 | 0.361 | 0.277 | 0.351 | 0.313 | 0.951 | 1.02 | 1.02 | 1.05 | 0.982 | 0.197 | 0.269 | 0.233 | 0.201 | 0.148
4 | UMC-11 | 0.429 | 0.641 | 0.503 | 0.446 | 0.437 | 0.668 | 1.02 | 0.495 | 0.477 | 0.57 | 0.352 | 0.304 | 0.337 | 0.283 | 0.259 | – | – | – | – | –
5 | NCI-H3122 | 0.836 | 1.07 | 1.09 | 1.33 | 0.774 | 0.513 | 0.435 | 0.362 | 0.421 | 0.535 | 1.09 | 1.03 | 1.02 | 1.09 | 1.01 | 0.974 | 0.925 | 1.01 | 0.994 | 0.981
6 | LXF-289 | 0.666 | 0.801 | 0.778 | 0.865 | 0.732 | 0.428 | 0.393 | 0.393 | 0.364 | 0.365 | 0.966 | 0.967 | 0.929 | 0.882 | 0.945 | 1.12 | 1.12 | 1.06 | 1.03 | 1.08
7 | NCI-H647 | 0.694 | 0.578 | 0.568 | 0.628 | 0.362 | – | 0.532 | 0.407 | 0.439 | 0.279 | 1.08 | 0.781 | 0.943 | 0.88 | 0.622 | 0.324 | 0.448 | 0.407 | 0.278 | 0.328
8 | COR-L23 | 0.614 | 0.715 | 0.534 | 1.11 | 0.723 | 0.469 | 0.54 | 0.429 | 0.431 | 0.417 | 1.01 | 1.02 | 0.963 | 0.954 | 0.997 | – | – | – | – | –
9 | BEN | 0.305 | 0.303 | 0.497 | 0.313 | 0.286 | 0.605 | 0.745 | 0.771 | 0.717 | 0.653 | 0.0671 | 0.0617 | 0.0682 | 0.0659 | 0.0557 | 0.639 | 0.695 | 0.737 | 0.697 | 0.661
10 | LC-2-ad | 0.778 | 0.951 | 0.822 | 0.743 | 0.759 | 0.743 | 0.865 | 0.832 | 0.777 | 0.791 | 0.514 | – | 0.424 | 0.348 | 0.361 | 0.832 | 0.823 | 0.832 | 0.777 | 0.736
11 | NCI-H650 | 0.474 | 0.469 | 0.501 | 0.587 | 0.58 | 0.297 | 0.333 | 0.307 | 0.312 | 0.315 | – | – | – | – | – | 0.769 | 0.902 | 0.926 | 1.12 | 0.904
12 | NCI-H1563 | 0.672 | 0.746 | 0.7 | 0.774 | 0.745 | – | – | – | – | – | – | – | – | – | – | – | – | – | – | –
13 | NCI-H1793 | 0.281 | 0.378 | 0.267 | 0.263 | 0.252 | 0.483 | 0.5 | 0.483 | 0.499 | 0.49 | 0.405 | 0.328 | 0.286 | 0.283 | 0.176 | 0.295 | 0.303 | 0.313 | 0.347 | 0.266
14 | HCC-78 | 0.42 | 0.405 | 0.397 | 0.381 | 0.326 | 0.75 | 0.82 | 0.655 | 0.808 | 0.642 | 0.654 | 0.665 | – | 0.457 | 0.487 | 0.483 | 0.697 | 0.55 | 0.545 | 0.507
15 | LCLC-97TM1 | 0.406 | 1.02 | 0.72 | 0.707 | 0.425 | 0.237 | 0.267 | 0.226 | 0.252 | 0.226 | 0.389 | 0.264 | 0.42 | 0.464 | 0.481 | 0.139 | 0.273 | 0.247 | 0.128 | 0.277
16 | NCI-H2009 | 0.624 | 0.63 | 0.555 | 0.612 | 0.509 | 0.384 | 0.47 | 0.415 | 0.372 | 0.36 | 1.13 | 1.16 | 1.17 | 1.02 | 0.927 | – | – | – | – | –
17 | H3255 | 0.684 | 0.599 | 0.671 | 0.553 | 0.532 | 0.481 | 0.618 | – | 0.644 | 0.585 | 0.486 | 0.49 | 0.515 | 0.553 | 0.601 | 0.766 | 0.907 | 0.932 | 0.822 | 0.71
18 | EPLC-272H | 0.253 | 0.286 | 0.263 | 0.27 | 0.289 | 0.385 | – | 0.329 | 0.356 | 0.35 | 1.1 | 1.17 | 1.19 | – | 1.29 | 0.24 | 0.222 | 0.161 | 0.171 | 0.197
